Measurements from ChEMBL document CHEMBL1124351, “Syntheses and bioevaluation of substituted dihydropyridines for pregnancy-interceptive activity in hamsters” (1989).

Experiments:
[1] = system: Progesterone receptor (Mesocricetus auratus); experiment: Percent inhibition of [3H]- progesterone binding to Syrian golden hamster uterine cytosol progesterone receptor, at 10e-6 M compound concentration; conditions: at 1 µM
[2] = system: Cricetinae gen. sp.; experiment: Activity against pregnancy-interceptive activity in Syrian golden hamsters, when administered, at a dose of 5.54 mmol/kg; assay type: functional
[3] = system: Progesterone receptor (Mesocricetus auratus); experiment: Percent inhibition of [3H]- progesterone binding to Syrian golden hamster uterine cytosol progesterone receptor, at 10e-7 M compound concentration; conditions: at 0.1 µM
[4] = molecular target: T1, Progesterone receptor (Oryctolagus cuniculus) (UniProt P06186); experiment: Percent inhibition of [3H]- progesterone binding to rabbit uterine progesterone receptor, at 10e-7 M compound concentration; conditions: at 0.1 µM
T1 sequence (whole entry): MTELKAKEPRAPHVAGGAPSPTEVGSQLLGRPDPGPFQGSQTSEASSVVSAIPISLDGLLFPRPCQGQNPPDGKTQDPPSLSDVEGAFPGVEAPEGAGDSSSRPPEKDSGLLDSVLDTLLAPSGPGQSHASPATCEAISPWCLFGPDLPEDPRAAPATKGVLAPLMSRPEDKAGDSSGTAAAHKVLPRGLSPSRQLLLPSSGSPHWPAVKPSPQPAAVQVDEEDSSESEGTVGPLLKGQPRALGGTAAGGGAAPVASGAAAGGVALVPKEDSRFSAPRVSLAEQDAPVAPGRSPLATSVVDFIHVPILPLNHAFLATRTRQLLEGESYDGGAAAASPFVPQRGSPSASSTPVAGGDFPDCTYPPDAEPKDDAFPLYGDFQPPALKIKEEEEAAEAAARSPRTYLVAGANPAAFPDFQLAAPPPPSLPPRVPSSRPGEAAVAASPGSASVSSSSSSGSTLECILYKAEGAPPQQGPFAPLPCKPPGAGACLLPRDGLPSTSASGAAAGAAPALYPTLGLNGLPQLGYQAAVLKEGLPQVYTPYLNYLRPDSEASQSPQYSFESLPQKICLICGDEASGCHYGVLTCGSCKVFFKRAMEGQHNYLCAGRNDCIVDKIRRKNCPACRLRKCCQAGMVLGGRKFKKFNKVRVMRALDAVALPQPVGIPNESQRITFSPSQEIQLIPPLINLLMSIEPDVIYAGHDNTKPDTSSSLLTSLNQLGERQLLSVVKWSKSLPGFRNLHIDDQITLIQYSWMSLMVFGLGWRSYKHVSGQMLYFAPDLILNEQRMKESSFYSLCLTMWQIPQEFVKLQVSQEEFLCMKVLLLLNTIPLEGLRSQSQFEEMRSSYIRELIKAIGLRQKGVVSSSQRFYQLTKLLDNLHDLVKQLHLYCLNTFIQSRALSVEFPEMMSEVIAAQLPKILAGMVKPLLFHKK

[5] = system: Progesterone receptor (Mesocricetus auratus); experiment: Percent inhibition of [3H]- progesterone binding to Syrian golden hamster uterine cytosol progesterone receptor, at 10e-8 M compound concentration; conditions: at 0.01 µM
[6] = molecular target: T1, Progesterone receptor (Oryctolagus cuniculus); experiment: Percent inhibition of [3H]- progesterone binding to rabbit uterine progesterone receptor, at 10e-8 M compound concentration; conditions: at 0.01 µM
[7] = system: Progesterone receptor (Mesocricetus auratus); experiment: Percent inhibition of [3H]- progesterone binding to Syrian golden hamster uterine cytosol progesterone receptor, at 10e-5 M compound concentration; conditions: at 10 µM
[8] = molecular target: T1, Progesterone receptor (Oryctolagus cuniculus); experiment: Percent inhibition of [3H]- progesterone binding to rabbit uterine progesterone receptor, at 10e-9 M compound concentration; conditions: at 0.001 µM
[9] = molecular target: T1, Progesterone receptor (Oryctolagus cuniculus); experiment: Percent inhibition of [3H]- progesterone binding to rabbit uterine progesterone receptor, at 10e-5 M compound concentration; conditions: at 10 µM
[10] = system: Progesterone receptor (Mesocricetus auratus); experiment: Percent inhibition of [3H]- progesterone binding to Syrian golden hamster uterine cytosol progesterone receptor, at 10e-9 M compound concentration; conditions: at 0.001 µM
[11] = molecular target: T1, Progesterone receptor (Oryctolagus cuniculus); experiment: Percent inhibition of [3H]- progesterone binding to rabbit uterine progesterone receptor, at 10e-6 M compound concentration; conditions: at 1 µM
[12] = system: Cricetinae gen. sp.; experiment: Activity against pregnancy-interceptive activity in Syrian golden hamsters, when administered, at a dose of 5.64 mmol/kg; assay type: functional
[13] = system: Cricetinae gen. sp.; experiment: Activity against pregnancy-interceptive activity in Syrian golden hamsters, when administered, at a dose of 14.62 mmol/kg; assay type: functional
[14] = system: Cricetinae gen. sp.; experiment: Activity against pregnancy-interceptive activity in Syrian golden hamsters, when administered, at a dose of 6.70 mmol/kg; assay type: functional
[15] = system: Cricetinae gen. sp.; experiment: Activity against pregnancy-interceptive activity in Syrian golden hamsters, when administered, at a dose of 6.66 mmol/kg; assay type: functional
[16] = system: Cricetinae gen. sp.; experiment: Activity against pregnancy-interceptive activity in Syrian golden hamsters, when administered, at a dose of 12.08 mmol/kg; assay type: functional
[17] = system: Cricetinae gen. sp.; experiment: Activity against pregnancy-interceptive activity in Syrian golden hamsters, when administered, at a dose of 6.36 mmol/kg; assay type: functional, Cricetulus griseus
[18] = system: Cricetinae gen. sp.; experiment: Activity against pregnancy-interceptive activity in Syrian golden hamsters, when administered, at a dose of 15.11 mmol/kg; assay type: functional
[19] = system: Cricetinae gen. sp.; experiment: Activity against pregnancy-interceptive activity in Syrian golden hamsters, when administered, at a dose of 13.15 mmol/kg; assay type: functional
[20] = system: Cricetinae gen. sp.; experiment: Activity against pregnancy-interceptive activity in Syrian golden hamsters, when administered, at a dose of 15.20 mmol/kg; assay type: functional
[21] = system: Cricetinae gen. sp.; experiment: Activity against pregnancy-interceptive activity in Syrian golden hamsters, when administered, at a dose of 7.83 mmol/kg; assay type: functional
[22] = molecular target: T1, Progesterone receptor (Oryctolagus cuniculus); experiment: Percent inhibition of [3H]- progesterone binding to rabbit uterine progesterone receptor at 10e-7 M
[23] = system: Cricetinae gen. sp.; experiment: Activity against pregnancy-interceptive activity in Syrian golden hamsters, when administered, at a dose of 4.95 mmol/kg; assay type: functional
[24] = system: Cricetinae gen. sp.; experiment: Activity against pregnancy-interceptive activity in Syrian golden hamsters, when administered, at a dose of 6.98 mmol/kg; assay type: functional
[25] = system: Cricetinae gen. sp.; experiment: Activity against pregnancy-interceptive activity in Syrian golden hamsters, when administered, at a dose of 8.82 mmol/kg; assay type: functional
[26] = system: Cricetinae gen. sp.; experiment: Activity against pregnancy-interceptive activity in Syrian golden hamsters, when administered, at a dose of 8.35 mmol/kg; assay type: functional, Cricetulus griseus
[27] = system: Cricetinae gen. sp.; experiment: Activity against pregnancy-interceptive activity in Syrian golden hamsters, when administered, at a dose of 19.43 mmol/kg; assay type: functional
[28] = system: Cricetinae gen. sp.; experiment: Activity against pregnancy-interceptive activity in Syrian golden hamsters, when administered, at a dose of 6.96 mmol/kg; assay type: functional

Structure (SMILES)	inhibition [1] [%]	inhibition [3] [%]	inhibition [4] [%]	inhibition [5] [%]	inhibition [6] [%]	inhibition [7] [%]	inhibition [8] [%]	inhibition [9] [%]	inhibition [10] [%]	inhibition [11] [%]	also measured
COC(=O)C1=C(C)N=C(C)/C(=C(/O)OC)C1c1ccc(NCc2ccccc2)c([N+](=O)[O-])c1 (centres undefined)	6	4	0	0	10	10	0	12	0	10	Activity [2]: 2.5
COC(=O)C1=C(C)N=C(C)/C(=C(/O)OC)C1c1ccc2nc3n(c2c1)C(=O)c1ccccc1-3 (centres undefined)	10	8	0	9	0	16	0	15	6	15	Activity [12]: 3.8
COC(=O)C1=C(C)N=C(C)/C(=C(/O)OC)C1c1ccc2[nH]nnc2c1 (centres undefined)	18	16	12	12	8	26	10	22	9	20	Activity [13]: 5.2
COC(=O)C1=C(C)N=C(C)/C(=C(/O)OC)C1c1ccc2[nH]c(S)nc2c1 (centres undefined)	26	18	15	10	10	30	0	20	9	18	Activity [14]: 5
CNc1ccc(C2C(C(=O)OC)=C(C)N=C(C)/C2=C(/O)OC)cc1[N+](=O)[O-] (centres undefined)	13	10	10	4	8	12	5	14	4	10	Activity [15]: 6.8
COC(=O)Nc1nc2cc(C3C(C(=O)OC)=C(C)N=C(C)/C3=C(/O)OC)ccc2[nH]1 (centres undefined)	15	16	16	10	5	28	5	20	0	16	Activity [16]: 1.5
COC(=O)C1=C(C)N=C(C)/C(=C(/O)OC)C1c1cc2ccccc2n2nnnc12 (centres undefined)	9	10	12	8	10	10	0	14	0	8	Activity [17]: 2.5
COC(=O)C1=C(C)N=C(C)/C(=C(/O)OC)C1c1ccc(N)c(N)c1 (centres undefined)	14	9	16	0	10	18	13	21	0	15	Activity [18]: 2.3
COC(=O)C1=C(C)N=C(C)/C(=C(/O)OC)C1c1ccc(Cl)c([N+](=O)[O-])c1 (centres undefined)	14	10	5	5	0	24	0	18	2	10	Activity [19]: 2.6
COC(=O)C1=C(C)N=C(C)/C(=C(/O)OC)C1c1ccc(C=O)cc1 (centres undefined)	10	5	8	9	4	12	3	15	0	10	Activity [20]: 5.15
COC(=O)C1=C(C)N=C(C)/C(=C(\O)OC)C1c1cc(C(=O)c2ccc(C)cc2)c(OC)cc1OC (centres undefined)	15	15	–	12	11	18	10	23	8	18	Activity [21]: 6; inhibition [22]: 15%
COC(=O)C1=C(C)N=C(C)/C(=C(/O)OC)C1c1ccc2nc(-c3ccccc3)c(-c3ccccc3)nc2c1 (centres undefined)	15	12	10	9	2	18	2	16	6	18	Activity [23]: 4.6
COC(=O)C1=C(C)N=C(C)/C(=C(\O)OC)C1c1ccc(NC(C)=O)cc1 (centres undefined)	–	–	–	–	–	–	–	15	–	18	Activity [24]: 0.66
COC(=O)C1=C(C)N=C(C)/C(=C(/O)OC)C1c1ccc2nc(-c3ccc(OC)cc3)n(Cc3ccc(OC)cc3)c2c1 (centres undefined)	20	15	10	12	6	24	2	20	10	16	Activity [25]: 6
COC(=O)C1=C(C)N=C(C)/C(=C(/O)OC)C1c1ccc2nc(-c3ccc(O)c(OC)c3)n(Cc3ccc(O)c(OC)c3)c2c1 (centres undefined)	18	12	15	5	8	18	5	20	3	15	Activity [26]: 1.2
COC(=O)C1=C(C)N=C(C)/C(=C(/O)OC)C1c1cc2ccccc2nc1Cl (centres undefined)	14	11	10	10	11	14	8	17	6	16	Activity [27]: 3
COC(=O)C1=C(C)N=C(C)/C(=C(\O)OC)C1c1ccc(C(=O)OC)cc1 (centres undefined)	32	27	–	10	0	40	0	25	10	15	Activity [28]: 0.72; inhibition [22]: 20%
